Experimental data from patent US4879273A (The Rockefeller University, priority 1987, dated 1989).
Where no end group is shown, it is not given here.

Tests used:
adenylate cyclase [1] = conditions: relative to glucagon = 100; liver membranes
Protocol: Adenylate Cyclase Assay. The assay on liver membranes was performed according to Salomon et al. [Salomon, Y., Londos, C. & Rodbell, M. Anal. Biochem. 58, 541,548 (1974)]. The released cAMP was mixed with [8-^3 H]cAMP measured with a high affinity cAMP binding protein.
The purpose of the adenylate cyclase assays is to measure the ability of the compound under test to stimulate the activity of adenylate cyclase. The assays are used to measure relative potency, maximum activity and inhibition index.
The inhibition index, defined above, was determined from adenylate cyclase assays by two different protocols.
2. […] Increasing amounts of antagonist were then added and the concentration that reduced the response to 45% of maximum was determined.

glucagon receptor = conditions: prior-art antagonist; cited from earlier work
hepatocyte membrane = conditions: prior-art antagonist; cited from earlier work
adenylate cyclase [2] = conditions: prior-art antagonist; cited from earlier work

| Molecule | ADENYL CYCLASE ASSAYS Rel. Potency (adenylate cyclase [1]) | binding to the glucagon receptor (in words) (glucagon receptor) | activation of another binding system leading to inositol triphosphate and calcium ions (in words) (hepatocyte membrane) | activation of adenylate cyclase (in words) (adenylate cyclase [2]) |
| --- | --- | --- | --- | --- |
| SQGTFTSEYSKYLDSKKAQEFVQWLMNT [Compound 3, des-His^1-[Glu^9 -Lys^17,18 Glu^21] glucagon] | 0.0001 |  |  |  |
| Nα- trinitrophenyl [12-homoarginine] glucagon |  | does bind to the glucagon receptor | activates another binding system | without significant activation |
| CSCC[C@H](NC(=O)[C@H](CC(C)C)NC(=O)[C@H](Cc1c[nH]c2ccccc12)NC(=O)[C@H](CCC(N)=O)NC(=O)[C@@H](NC(=O)[C@H](Cc1ccccc1)NC(=O)[C@H](CC(=O)O)NC(=O)[C@H](CCC(N)=O)NC(=O)[C@H](C)NC(=O)[C@H](CCCNC(=N)N)NC(=O)[C@H](CCCNC(=N)N)NC(=O)[C@H](CO)NC(=O)[C@H](CC(=O)O)NC(=O)[C@H](CC(C)C)NC(=O)[C@H](Cc1ccc(O)cc1)NC(=O)[C@H](CCCCN)NC(=O)[C@H](CO)NC(=O)[C@H](Cc1ccc(O)cc1)NC(=O)[C@H](CCC(=O)O)NC(=O)[C@H](CO)NC(=O)[C@@H](NC(=O)[C@H](Cc1ccccc1)NC(=O)[C@@H](NC(=O)CNC(=O)[C@H](CCC(N)=O)NC(=O)[C@@H](N)CO)[C@@H](C)O)[C@@H](C)O)C(C)C)C(=O)N[C@@H](CC(N)=O)C(=O)N[C@H](C(=O)O)[C@@H](C)O [Compound 1, des-His^1-[Glu^9] glucagon] | < 0.0008 |  |  |  |
| CSCC[C@H](NC(=O)[C@H](CC(C)C)NC(=O)[C@H](Cc1c[nH]c2ccccc12)NC(=O)[C@H](CCC(N)=O)NC(=O)[C@@H](NC(=O)[C@H](Cc1ccccc1)NC(=O)[C@H](CC(=O)O)NC(=O)[C@H](CCC(N)=O)NC(=O)[C@H](C)NC(=O)[C@H](CCCNC(=N)N)NC(=O)[C@H](CCCNC(=N)N)NC(=O)[C@H](CO)NC(=O)[C@H](CC(=O)O)NC(=O)[C@H](CC(C)C)NC(=O)[C@H](Cc1ccc(O)cc1)NC(=O)[C@H](CCCCN)NC(=O)[C@H](CO)NC(=O)[C@H](Cc1ccc(O)cc1)NC(=O)[C@H](CCC(=O)O)NC(=O)[C@H](CO)NC(=O)[C@@H](NC(=O)[C@H](Cc1ccccc1)NC(=O)[C@@H](NC(=O)CNC(=O)[C@H](CCC(N)=O)NC(=O)[C@@H](N)CO)[C@@H](C)O)[C@@H](C)O)C(C)C)C(=O)N[C@@H](CC(N)=O)C(=O)N[C@H](C(N)=O)[C@@H](C)O [Compound 2, des-His^1-[Glu^9] glucagon amide] | < 0.0001 |  |  |  |
